In publication PMC6154579, “Anti-Melanogenic Properties of Greek Plants. A Novel Depigmenting Agent from Morus alba Wood” (Molecules : A Journal of Synthetic Chemistry and Natural …, 2017):
“And” between values parts separate entries of the source, which are not always exact repeats. Identical values can stand only once. “Also recorded” adds a separate entry of the source. Like-named read-outs stand apart in the source and are kept apart here.

Assays:
B16F10 cells = experiment: MTT cytotoxicity assay; type: cell-based, Mouse; details: high concentrations
Protocol: Mouse skin melanoma (B16F10) cells were obtained from the American Tissue Culture Collection (Manassas, VA, USA) and were maintained in Dulbecco's modified Eagle’s medium (Gibco, Thermo Fischer Scientific, Waltham, MA, USA), supplemented with 10% (v/v) fetal bovine serum (Gibco, Thermo Fischer Scientific) and 2 mM glutamine (Gibco, Thermo Fischer Scientific) in a humidified incubator at 5% CO2 and 37 °C.
MTT cytotoxicity assay was performed as described previously. Briefly, B16F10 cells were cultured at 96-wellmicroplates (5000 cells/well). After 24 h the cells were treated with different concentrations of the extracts (in control cells an appropriate amount of DMSO was added). The MTT solution (MTT, Sigma-Aldrich) (1 mg/mL in serum free, phenol red free medium) was added 48 h after the addition of test extracts. After 4 h, the MTT solution was discarded and isopropanol was added to dissolve the formazan crystals. Absorbance was recorded at 570 nm using a microplate reader (EZ Read 400 ELISA microplate reader, Biochrom, Cambridge, UK). Survival of non-treated cells was set to 100%.

zebrafish embryos = experiment: In vivo inhibition of melanogenesis assay; details: embryos treated 24 to 48 hpf, ranking: most potent, followed by, weakest, Figure 5: MAM 70, F33 70, F38-42 10, F43 10, 1/5/6/7 50, 2 7, 11 10 μg/mL
mushroom tyrosinase = target: T1, mushroom tyrosinase (Agaricus bisporus, UniProt C7FF04); experiment: Tyrosinase inhibition assay (oxidation of L-DOPA, diphenolase activity); type: biochemical; details: for inhibition at 60 µM: read-out: Tyrosinase Inhibition % ± STD (60 μM); for inhibition at 300 µM: read-out: Tyrosinase Inhibition % ± STD (300 μM); for fold more potent tyrosinase inhibition than kojic acid: ratio of IC50 values vs reference kojic acid;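 as to all read-outs here: dopachrome formation from L-DOPA by mushroom tyrosinase in phosphate buffer, compound preincubated with enzyme 10 min at 25 °C, inhibition versus sample-free control, enzyme-free blanks subtracted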
T1 construct: purchased Sigma-Aldrich
T1 sequence (C7FF04 1-392 limits assumed): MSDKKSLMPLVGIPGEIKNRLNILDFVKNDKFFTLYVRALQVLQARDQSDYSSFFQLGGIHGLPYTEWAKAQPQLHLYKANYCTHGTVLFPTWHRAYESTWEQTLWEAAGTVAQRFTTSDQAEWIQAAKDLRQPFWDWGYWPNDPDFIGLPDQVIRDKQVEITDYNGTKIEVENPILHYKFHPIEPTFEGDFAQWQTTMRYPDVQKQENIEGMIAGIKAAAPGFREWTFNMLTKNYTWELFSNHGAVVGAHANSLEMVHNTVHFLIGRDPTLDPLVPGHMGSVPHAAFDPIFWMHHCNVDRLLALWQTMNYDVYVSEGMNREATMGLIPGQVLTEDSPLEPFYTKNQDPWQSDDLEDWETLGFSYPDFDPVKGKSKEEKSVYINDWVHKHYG

[1] = compound at 60 μM, two independent experiments
[2] = compound at 300 μM, two independent experiments
[3] = diphenolase activity, three independent experiments, read-out: Tyrosinase Inhibition IC50 ± STD

SMILES	melanogenesis inhibition on zebrafish embryos (in words) (zebrafish embryos)	inhibition at 60 µM (mushroom tyrosinase; [1]) [%]	inhibition at 300 µM (mushroom tyrosinase; [2]) [%]	IC50 (mushroom tyrosinase) [µM]	also measured
Oc1cccc(CCc2ccc(O)cc2O)c1 [2,4,3′-Trihydroxydihydrostilbene (7), 2,4,3′-Trihydroxydihydrostilbene]	significantly suppress in vivo melanogenesis; also recorded: most potent; also recorded: significantly suppressed in vivo melanogenesis	96.3 ± 0.5	97.8 ± 0.1	–	cytotoxicity in cells (in words) (B16F10 cells): non-cytotoxic in high concentrations; IC50 (mushroom tyrosinase; [3]): 0.8 ± 0.15 µM; fold more potent tyrosinase inhibition than kojic acid (mushroom tyrosinase): ~ 20 fold and 20 fold
O=Cc1ccc(O)cc1O [2,4-Dihydroxybenzaldehyde (9), 2,4-dihydroxybenzaldehyde]	–	–	4.9 ± 0.3	–	–
Oc1cc(O)cc(CCc2ccc(O)cc2O)c1 [Dihydrooxyresveratrol (5), Dihydrooxyresveratrol]	–	–	–	0.3 ± 0.05	melanogenesis inhibition on zebrafish embryos (in words) (zebrafish embryos; listed as dihydrooxyresveratrol): only partially inhibited the melanogenesis; fold more potent tyrosinase inhibition than kojic acid (mushroom tyrosinase): ~ 50 fold; inhibition at 60 µM (mushroom tyrosinase): 97.6 ± 0.2%; inhibition at 300 µM (mushroom tyrosinase): 98.2 ± 0.5%
CC(C)=CCc1c(-c2ccc(O)cc2O)oc2c(CC=C(C)C)c(O)cc(O)c2c1=O [Kuwanon C (2), kuwanon C]	weakest inhibitor of melanogenesis	46.5 ± 1.3	75.6 ± 1.2	76.2 ± 1.1	–
CC(C)=CCc1c(-c2ccc(O)cc2O)oc2c(C3C=C(C)CC(c4ccc(O)cc4O)C3C(=O)c3ccc(O)cc3O)c(O)cc(O)c2c1=O (stereo not drawn) [Kuwanon G (12), kuwanon G]	–	–	–	27.5 ± 1.2	inhibition at 60 µM (mushroom tyrosinase): 59.1 ± 1.4%; inhibition at 300 µM (mushroom tyrosinase): 77.8 ± 2.8%
CC(C)=CCc1c(O)ccc(C(=O)C2C(c3c(O)cc(O)c4c(=O)c(CC=C(C)C)c(-c5ccc(O)cc5O)oc34)C=C(C)CC2c2ccc(O)cc2O)c1O (stereo not drawn) [Kuwanon H (8), kuwanon H]	–	46 ± 2.9	49 ± 2.6	> 100	–
Oc1cc(O)cc(-c2cc3ccc(O)cc3o2)c1 [Moracin M (11), moracin M]	–	61.3 ± 1.2	87.2 ± 0.5	8 ± 0.6	–
CC(C)=CCc1c(-c2ccc(O)cc2O)oc2c3c(cc(O)c2c1=O)OC(C)(C)C=C3 [Morusin (10), morusin]	–	31 ± 3.2	49.9 ± 2.2	> 100	–
OC[C@H]1O[C@@H](Oc2cc(O)cc(/C=C/c3ccc(O[C@@H]4O[C@H](CO)[C@@H](O)[C@H](O)[C@H]4O)cc3O)c2)[C@H](O)[C@@H](O)[C@@H]1O [Mulberroside A (3), mulberroside A]	–	43.1 ± 0.7	58.3 ± 1.4	> 100	–
Oc1cc(O)cc(/C=C/c2ccc(O)cc2O)c1 [Oxyresveratrol (1), oxyresveratrol]	significantly suppress in vivo melanogenesis; also recorded: most potent	–	–	–	–
Oc1cccc(O)c1 [Resorcinol (4), resorcinol]	–	38 ± 1.1	60.4 ± 1	163 ± 18.2	–
O=C1c2c(O)cc(O)cc2OC(c2ccc(O)cc2O)C1O (stereo not drawn) [trans-Dihydromorin (6), trans-dihydromorin]	significantly suppress in vivo melanogenesis; also recorded: most potent	73.1 ± 0.6	94.3 ± 0.1	–	IC50 (mushroom tyrosinase; [3]): 9.4 ± 1.3 µM
